Test results: ChEMBL document CHEMBL5653615 (J Biol Chem, 2013)

What was measured:
[1] = target: Calcium/calmodulin-dependent protein kinase type II subunit delta (Homo sapiens) (UniProt Q13557); test: Inhibition of human CAMK2d at 18.6 nM by HotSpot assay relative to control
[2] = target: Homeodomain-interacting protein kinase 3 (Homo sapiens) (UniProt Q9H422); test: Inhibition of human HIPK3 at 18.6 nM by HotSpot assay relative to control
[3] = target: T1, Beta-adrenergic receptor kinase 1 (Homo sapiens) (UniProt P25098); test: Inhibition of human GRK2 at 1.82 nM by HotSpot assay relative to control
T1 sequence (whole entry): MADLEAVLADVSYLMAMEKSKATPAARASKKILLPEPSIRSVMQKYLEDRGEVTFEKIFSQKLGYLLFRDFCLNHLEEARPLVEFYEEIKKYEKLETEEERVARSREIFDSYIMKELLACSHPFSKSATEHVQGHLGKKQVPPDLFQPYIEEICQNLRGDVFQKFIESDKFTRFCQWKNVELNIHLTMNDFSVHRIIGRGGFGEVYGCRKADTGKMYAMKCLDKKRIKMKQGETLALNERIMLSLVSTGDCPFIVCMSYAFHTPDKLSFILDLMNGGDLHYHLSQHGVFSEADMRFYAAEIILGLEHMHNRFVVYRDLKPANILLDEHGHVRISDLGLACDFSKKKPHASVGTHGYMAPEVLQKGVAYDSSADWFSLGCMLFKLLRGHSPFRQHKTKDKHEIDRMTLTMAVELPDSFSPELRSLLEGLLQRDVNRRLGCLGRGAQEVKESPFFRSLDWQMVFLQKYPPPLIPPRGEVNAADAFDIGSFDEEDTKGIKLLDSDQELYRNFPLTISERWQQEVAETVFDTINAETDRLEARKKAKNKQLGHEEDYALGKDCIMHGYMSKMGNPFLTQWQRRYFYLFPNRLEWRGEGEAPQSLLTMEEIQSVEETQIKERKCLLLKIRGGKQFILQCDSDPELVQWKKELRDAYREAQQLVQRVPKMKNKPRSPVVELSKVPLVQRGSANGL

[4] = target: T2, Phosphorylase b kinase gamma catalytic chain, liver/testis isoform (Homo sapiens) (UniProt P15735); test: Inhibition of human PHKg2 at 1.82 nM by HotSpot assay relative to control
T2 sequence (whole entry): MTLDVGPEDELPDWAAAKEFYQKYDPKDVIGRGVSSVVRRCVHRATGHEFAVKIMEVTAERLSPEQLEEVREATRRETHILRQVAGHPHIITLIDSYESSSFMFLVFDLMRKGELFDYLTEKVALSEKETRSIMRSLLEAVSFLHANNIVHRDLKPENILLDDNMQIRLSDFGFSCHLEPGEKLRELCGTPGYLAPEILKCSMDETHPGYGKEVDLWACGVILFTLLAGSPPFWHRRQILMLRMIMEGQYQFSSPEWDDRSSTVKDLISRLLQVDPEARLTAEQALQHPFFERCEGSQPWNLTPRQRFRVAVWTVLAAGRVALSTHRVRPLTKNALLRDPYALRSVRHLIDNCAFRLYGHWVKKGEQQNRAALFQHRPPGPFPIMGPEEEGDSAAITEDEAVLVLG

[5] = target: Serine/threonine-protein kinase pim-2 (Homo sapiens) (UniProt Q9P1W9); test: Inhibition of human PIM2 at 1.82 nM by HotSpot assay relative to control
[6] = target: Angiopoietin-1 receptor (Homo sapiens) (UniProt Q02763); test: Inhibition of human TEK at 1.82 nM by HotSpot assay relative to control
[7] = target: T3, Serine/threonine-protein kinase ULK1 (Homo sapiens) (UniProt O75385); test: Inhibition of human ULK1 at 1.82 nM by HotSpot assay relative to control
T3 sequence (whole entry): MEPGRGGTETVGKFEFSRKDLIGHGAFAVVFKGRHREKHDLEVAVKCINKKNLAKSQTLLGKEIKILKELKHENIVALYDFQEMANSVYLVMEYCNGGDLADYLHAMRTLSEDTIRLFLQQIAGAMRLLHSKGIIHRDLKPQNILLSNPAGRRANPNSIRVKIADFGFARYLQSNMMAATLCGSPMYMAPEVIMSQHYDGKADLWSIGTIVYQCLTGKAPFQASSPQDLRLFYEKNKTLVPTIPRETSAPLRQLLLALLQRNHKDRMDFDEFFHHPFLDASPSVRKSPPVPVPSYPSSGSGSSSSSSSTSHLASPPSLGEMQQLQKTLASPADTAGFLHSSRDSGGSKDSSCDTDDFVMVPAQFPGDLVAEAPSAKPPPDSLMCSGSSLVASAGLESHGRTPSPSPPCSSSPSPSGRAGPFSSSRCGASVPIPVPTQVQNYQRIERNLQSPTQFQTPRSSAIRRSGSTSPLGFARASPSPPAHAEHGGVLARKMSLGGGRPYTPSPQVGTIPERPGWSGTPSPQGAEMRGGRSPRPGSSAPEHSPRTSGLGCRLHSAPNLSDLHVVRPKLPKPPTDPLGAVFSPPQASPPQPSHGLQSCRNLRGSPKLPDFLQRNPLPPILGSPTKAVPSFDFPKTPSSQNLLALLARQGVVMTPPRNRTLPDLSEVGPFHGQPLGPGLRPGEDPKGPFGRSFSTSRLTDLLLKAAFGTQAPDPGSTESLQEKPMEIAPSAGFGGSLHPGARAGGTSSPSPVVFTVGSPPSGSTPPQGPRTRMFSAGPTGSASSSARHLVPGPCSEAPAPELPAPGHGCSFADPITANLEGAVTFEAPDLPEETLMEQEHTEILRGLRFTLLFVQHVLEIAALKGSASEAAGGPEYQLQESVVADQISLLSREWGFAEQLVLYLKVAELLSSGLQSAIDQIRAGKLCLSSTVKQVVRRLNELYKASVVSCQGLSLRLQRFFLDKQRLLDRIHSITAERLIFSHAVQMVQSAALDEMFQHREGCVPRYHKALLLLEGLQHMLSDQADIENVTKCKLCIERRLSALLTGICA

Serine/threonine-protein kinase pim-2 (Homo sapiens), sequence (Q9P1W9 whole entry, looked up): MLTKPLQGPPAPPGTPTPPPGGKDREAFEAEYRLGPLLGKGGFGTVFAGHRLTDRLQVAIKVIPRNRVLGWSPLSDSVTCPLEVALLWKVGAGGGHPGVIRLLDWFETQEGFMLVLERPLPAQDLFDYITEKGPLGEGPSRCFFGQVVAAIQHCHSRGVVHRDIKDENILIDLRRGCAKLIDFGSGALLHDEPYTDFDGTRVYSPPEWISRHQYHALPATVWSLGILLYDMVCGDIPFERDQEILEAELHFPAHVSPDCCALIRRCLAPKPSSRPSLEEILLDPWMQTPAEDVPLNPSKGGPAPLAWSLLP
Calcium/calmodulin-dependent protein kinase type II subunit delta (Homo sapiens), sequence (Q13557 whole entry): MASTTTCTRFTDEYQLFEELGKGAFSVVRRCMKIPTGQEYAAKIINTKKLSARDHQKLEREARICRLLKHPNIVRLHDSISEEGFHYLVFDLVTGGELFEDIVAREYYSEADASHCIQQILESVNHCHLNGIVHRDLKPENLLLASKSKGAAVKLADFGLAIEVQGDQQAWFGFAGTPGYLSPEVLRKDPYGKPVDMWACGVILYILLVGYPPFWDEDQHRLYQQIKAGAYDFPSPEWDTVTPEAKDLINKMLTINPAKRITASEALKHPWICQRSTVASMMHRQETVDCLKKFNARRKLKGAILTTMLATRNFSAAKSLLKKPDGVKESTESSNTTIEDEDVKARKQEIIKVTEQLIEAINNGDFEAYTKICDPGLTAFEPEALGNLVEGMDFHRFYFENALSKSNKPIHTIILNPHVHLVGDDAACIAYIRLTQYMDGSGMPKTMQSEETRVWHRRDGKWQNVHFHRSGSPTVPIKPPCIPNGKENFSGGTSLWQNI
Angiopoietin-1 receptor (Homo sapiens), sequence (Q02763 whole entry): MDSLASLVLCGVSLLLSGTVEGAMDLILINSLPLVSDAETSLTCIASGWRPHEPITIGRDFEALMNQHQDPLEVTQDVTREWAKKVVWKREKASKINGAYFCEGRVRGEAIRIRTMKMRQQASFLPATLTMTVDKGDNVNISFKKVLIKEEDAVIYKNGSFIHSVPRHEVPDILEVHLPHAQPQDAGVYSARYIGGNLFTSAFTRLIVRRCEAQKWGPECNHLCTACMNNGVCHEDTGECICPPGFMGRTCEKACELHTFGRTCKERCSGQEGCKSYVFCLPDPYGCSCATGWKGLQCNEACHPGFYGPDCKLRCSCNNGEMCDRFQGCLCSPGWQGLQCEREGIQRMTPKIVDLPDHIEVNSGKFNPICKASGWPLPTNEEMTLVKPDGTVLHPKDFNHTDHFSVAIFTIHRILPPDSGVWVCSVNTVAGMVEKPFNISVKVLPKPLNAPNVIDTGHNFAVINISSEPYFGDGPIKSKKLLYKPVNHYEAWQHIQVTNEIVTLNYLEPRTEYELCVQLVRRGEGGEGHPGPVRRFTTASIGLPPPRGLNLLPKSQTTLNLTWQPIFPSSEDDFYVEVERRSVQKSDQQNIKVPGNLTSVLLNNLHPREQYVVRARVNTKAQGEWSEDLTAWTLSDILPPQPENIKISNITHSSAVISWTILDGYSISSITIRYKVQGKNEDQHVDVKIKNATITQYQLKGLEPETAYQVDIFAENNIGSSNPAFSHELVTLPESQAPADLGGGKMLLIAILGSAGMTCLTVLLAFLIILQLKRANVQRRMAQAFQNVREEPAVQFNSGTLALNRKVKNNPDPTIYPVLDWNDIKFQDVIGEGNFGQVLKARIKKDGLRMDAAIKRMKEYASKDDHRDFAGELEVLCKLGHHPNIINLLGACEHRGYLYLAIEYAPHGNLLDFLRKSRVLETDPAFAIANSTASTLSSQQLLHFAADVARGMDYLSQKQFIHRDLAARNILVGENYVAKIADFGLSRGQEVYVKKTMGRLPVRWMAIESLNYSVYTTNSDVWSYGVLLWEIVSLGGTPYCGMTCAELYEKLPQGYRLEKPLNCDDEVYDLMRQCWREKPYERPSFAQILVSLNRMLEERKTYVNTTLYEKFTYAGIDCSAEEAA
Homeodomain-interacting protein kinase 3 (Homo sapiens), sequence (Q9H422 whole entry, looked up): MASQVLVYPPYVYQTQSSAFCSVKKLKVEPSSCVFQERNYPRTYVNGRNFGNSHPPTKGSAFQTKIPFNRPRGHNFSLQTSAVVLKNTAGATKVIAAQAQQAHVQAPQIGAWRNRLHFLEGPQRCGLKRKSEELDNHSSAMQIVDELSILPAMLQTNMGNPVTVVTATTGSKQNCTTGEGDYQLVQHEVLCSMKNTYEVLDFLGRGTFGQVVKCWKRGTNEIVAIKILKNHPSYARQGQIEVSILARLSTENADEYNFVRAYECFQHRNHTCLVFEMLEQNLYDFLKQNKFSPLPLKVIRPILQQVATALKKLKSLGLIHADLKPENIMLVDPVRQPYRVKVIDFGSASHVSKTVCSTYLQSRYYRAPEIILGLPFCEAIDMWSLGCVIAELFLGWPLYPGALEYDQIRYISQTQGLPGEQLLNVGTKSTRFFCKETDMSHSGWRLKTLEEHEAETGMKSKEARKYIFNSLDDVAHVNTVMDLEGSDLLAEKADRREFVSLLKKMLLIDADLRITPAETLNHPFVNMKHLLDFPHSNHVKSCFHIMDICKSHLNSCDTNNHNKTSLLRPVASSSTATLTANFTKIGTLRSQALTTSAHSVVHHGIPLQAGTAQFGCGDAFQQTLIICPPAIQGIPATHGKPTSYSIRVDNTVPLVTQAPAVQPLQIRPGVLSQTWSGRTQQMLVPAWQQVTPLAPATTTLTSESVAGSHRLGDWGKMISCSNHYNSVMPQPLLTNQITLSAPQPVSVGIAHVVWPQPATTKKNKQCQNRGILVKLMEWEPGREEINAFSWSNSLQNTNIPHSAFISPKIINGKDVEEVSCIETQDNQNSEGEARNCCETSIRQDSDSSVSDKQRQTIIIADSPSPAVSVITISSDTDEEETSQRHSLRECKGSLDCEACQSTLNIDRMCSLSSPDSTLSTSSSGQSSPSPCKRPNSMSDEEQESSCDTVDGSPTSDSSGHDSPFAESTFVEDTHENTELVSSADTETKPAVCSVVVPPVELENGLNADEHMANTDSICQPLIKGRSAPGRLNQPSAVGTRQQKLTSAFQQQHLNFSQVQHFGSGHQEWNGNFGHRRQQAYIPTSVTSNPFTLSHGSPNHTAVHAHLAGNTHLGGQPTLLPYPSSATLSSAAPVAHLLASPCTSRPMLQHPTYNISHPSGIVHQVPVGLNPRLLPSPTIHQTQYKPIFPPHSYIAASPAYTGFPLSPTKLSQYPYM

inhibition [1] [%] | inhibition [2] [%] | inhibition [3] [%] | inhibition [4] [%] | inhibition [5] [%] | inhibition [6] [%] | inhibition [7] [%] | SMILES
0.37 | -5.3 |  |  |  |  |  | C[C@]1(O)C[C@@H](c2nc(-c3ccc4ccc(-c5ccccc5)nc4c3)c3c(N)nccn32)C1
 |  | -0.25 | -4.64 | -3.22 | 4 | 0.76 | C[C@@]1(C(=O)Nc2ccc(F)nc2)CCCN1c1nc(Nc2cc(C3CC3)n[nH]2)c2cccn2n1
